Laboratory results from patent US20200239530A1, “COMPOUNDS AND METHODS OF MODULATING PROTEIN DEGRADATION” (Vividion Therapeutics, Inc., priority 2017, published 2020).

Experiments:
Assay in all cases: Cysteine liganding, probe competition
Assay type in all cases: binding
[1] = target: T1, FLYWCH2 FLYWCH family member 2 (Homo sapiens, UniProt Q96CP2)
T1 construct: 200 μL of lysate containing 5 mg/ml proteome was treated with 2 μL of 100× compound stock; endogenous in cells
T1 sequence (Q96CP2 1-140): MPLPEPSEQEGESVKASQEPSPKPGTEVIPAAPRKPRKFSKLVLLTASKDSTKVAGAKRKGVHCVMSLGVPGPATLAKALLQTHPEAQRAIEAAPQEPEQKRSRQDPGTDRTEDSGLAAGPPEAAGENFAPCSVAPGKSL
In short: (§1)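 Steps: sonicate cells in cold PBS; treat 5 mg/ml lysate with compound (25° C, 1 hr); add desthiobiotin iodoacetamide probe from a 10 mM stock (25° C, 1 hr); precipitate, reduce, alkylate, digest with trypsin; capture labelled peptides on streptavidin for analysis.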

[2] = target: T2, PDCD11 Protein RRP5 homolog (Homo sapiens, UniProt Q14690)
T2 construct: Cells were resuspended in cold PBS on ice and sonicated with a probe sonicator to achieve lysis; endogenous in cells
T2 sequence (Q14690 whole entry): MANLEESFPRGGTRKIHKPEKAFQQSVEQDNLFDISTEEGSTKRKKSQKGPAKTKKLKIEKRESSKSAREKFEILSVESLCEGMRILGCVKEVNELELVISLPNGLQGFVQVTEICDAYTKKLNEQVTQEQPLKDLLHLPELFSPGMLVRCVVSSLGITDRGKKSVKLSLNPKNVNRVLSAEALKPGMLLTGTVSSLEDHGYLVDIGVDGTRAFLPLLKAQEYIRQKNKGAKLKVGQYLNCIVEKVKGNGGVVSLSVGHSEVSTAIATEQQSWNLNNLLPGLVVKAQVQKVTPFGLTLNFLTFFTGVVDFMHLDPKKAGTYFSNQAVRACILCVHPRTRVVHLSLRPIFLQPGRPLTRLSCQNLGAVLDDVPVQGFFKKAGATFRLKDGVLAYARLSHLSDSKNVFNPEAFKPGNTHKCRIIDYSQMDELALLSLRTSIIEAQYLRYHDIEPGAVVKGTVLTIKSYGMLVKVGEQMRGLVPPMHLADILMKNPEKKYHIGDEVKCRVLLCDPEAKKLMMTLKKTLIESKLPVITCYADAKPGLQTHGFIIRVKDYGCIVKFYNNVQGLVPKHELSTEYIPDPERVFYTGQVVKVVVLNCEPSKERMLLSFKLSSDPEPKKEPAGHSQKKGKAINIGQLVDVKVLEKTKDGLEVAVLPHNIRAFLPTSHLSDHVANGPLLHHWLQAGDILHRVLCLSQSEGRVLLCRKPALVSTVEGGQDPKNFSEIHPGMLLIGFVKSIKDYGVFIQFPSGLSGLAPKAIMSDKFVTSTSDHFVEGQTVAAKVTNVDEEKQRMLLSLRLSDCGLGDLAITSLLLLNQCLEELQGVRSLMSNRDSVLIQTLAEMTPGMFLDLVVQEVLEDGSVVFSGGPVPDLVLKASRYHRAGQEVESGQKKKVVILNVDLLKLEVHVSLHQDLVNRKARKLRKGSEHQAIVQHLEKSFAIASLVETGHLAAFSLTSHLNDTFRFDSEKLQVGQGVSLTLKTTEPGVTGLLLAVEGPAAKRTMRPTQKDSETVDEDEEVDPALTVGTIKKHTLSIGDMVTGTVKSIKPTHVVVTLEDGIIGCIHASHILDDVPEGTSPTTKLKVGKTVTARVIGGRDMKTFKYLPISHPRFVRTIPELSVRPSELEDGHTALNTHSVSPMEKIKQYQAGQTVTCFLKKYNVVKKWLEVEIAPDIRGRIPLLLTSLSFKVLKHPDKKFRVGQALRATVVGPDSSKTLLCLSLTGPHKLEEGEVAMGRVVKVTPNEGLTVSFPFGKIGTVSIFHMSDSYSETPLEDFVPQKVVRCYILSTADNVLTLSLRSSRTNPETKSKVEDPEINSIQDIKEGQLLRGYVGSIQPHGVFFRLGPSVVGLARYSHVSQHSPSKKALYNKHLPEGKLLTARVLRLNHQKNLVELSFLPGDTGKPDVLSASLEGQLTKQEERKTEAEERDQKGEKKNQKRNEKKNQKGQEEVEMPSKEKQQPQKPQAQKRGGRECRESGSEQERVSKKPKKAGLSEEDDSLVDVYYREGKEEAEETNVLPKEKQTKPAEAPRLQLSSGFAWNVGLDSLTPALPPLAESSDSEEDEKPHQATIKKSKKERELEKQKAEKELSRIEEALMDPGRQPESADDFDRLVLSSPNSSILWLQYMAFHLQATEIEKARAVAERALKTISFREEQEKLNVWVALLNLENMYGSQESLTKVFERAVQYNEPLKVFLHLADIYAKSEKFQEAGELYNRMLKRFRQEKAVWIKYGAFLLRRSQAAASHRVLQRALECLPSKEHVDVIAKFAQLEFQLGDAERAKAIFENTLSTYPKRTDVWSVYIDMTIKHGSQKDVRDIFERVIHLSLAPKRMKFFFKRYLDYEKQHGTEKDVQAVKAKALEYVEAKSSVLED
In short: as §1

[3] = target: T3, RPS6KA3 Ribosomal protein S6 kinase alpha-3 (Homo sapiens, UniProt P51812)
T3 construct: Cells were resuspended in cold PBS on ice and sonicated with a probe sonicator to achieve lysis; endogenous in cells
T3 sequence (P51812 whole entry): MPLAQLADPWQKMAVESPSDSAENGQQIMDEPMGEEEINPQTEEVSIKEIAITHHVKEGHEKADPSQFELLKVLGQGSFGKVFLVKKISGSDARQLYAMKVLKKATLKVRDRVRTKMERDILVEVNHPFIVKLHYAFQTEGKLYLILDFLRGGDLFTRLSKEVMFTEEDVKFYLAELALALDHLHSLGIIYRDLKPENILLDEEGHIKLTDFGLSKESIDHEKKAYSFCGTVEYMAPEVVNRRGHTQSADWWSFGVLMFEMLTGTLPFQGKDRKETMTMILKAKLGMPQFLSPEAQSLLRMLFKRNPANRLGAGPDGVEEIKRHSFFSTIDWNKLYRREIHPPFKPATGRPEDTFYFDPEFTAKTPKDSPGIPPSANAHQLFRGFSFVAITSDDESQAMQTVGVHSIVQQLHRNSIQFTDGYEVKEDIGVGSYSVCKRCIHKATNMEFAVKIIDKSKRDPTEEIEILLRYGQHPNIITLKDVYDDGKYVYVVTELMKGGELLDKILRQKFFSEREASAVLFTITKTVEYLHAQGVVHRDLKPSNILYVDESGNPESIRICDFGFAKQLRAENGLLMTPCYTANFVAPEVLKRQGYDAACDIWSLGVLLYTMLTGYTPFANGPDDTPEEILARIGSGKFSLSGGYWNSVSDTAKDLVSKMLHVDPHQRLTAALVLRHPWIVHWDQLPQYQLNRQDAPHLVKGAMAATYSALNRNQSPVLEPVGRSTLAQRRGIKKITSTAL
In short: as §1

[4] = target: T4, VPS18 Vacuolar protein sorting-associated protein 18 homolog (Homo sapiens, UniProt Q9P253)
T4 construct: Cells were resuspended in cold PBS on ice and sonicated with a probe sonicator to achieve lysis; endogenous in cells
T4 sequence (Q9P253 1-973): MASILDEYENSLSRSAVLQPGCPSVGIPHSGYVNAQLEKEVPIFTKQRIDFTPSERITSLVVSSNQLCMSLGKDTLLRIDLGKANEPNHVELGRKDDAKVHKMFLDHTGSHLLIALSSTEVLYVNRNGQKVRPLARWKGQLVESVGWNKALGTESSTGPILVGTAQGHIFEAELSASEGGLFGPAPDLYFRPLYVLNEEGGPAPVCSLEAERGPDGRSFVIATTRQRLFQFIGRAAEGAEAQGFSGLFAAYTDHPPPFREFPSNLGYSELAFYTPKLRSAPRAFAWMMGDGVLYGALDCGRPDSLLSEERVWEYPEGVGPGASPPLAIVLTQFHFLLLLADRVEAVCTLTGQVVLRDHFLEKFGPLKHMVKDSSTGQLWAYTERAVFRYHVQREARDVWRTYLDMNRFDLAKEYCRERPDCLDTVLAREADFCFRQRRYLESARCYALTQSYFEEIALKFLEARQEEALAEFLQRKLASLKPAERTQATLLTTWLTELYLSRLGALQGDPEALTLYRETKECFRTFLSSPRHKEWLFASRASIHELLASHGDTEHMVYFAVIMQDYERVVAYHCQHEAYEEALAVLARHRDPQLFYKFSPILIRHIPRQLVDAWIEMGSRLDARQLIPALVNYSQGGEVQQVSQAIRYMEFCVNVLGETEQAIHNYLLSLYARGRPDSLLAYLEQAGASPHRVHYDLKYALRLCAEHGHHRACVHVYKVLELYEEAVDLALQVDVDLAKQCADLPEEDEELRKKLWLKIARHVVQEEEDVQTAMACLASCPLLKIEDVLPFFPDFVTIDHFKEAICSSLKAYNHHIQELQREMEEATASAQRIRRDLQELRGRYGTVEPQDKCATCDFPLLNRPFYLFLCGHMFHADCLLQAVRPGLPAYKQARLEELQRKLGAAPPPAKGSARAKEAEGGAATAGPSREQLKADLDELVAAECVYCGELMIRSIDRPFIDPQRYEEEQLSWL
In short: as §1

Row | SMILES | Liganded ([1]; FLYWCH2 Res# 64, uniprot Q96CP2) | Liganded ([2]; PDCD11 Res# 361, uniprot Q14690) | Liganded ([3]; RPS6KA3 Res# 229, uniprot P51812) | Liganded ([4]; VPS18 Res# 806, uniprot Q9P253) | 100 Max ([1]; uniprot Q96CP2) | 100 ave ([1]; uniprot Q96CP2) | 500 Max ([1]; uniprot Q96CP2) | 500 ave ([1]; uniprot Q96CP2) | 100 Max ([2]; uniprot Q14690) | 100 ave ([2]; uniprot Q14690) | 500 ave ([2]; uniprot Q14690) | 500 Max ([2]; uniprot Q14690, in % (unit assumed)) | 100 Max ([3]; uniprot P51812) | 100 ave ([3]; uniprot P51812) | 500 ave ([3]; uniprot P51812) | 500 Max ([3]; uniprot P51812, in % (unit assumed)) | 100 Max ([4]; uniprot Q9P253) | 100 ave ([4]; uniprot Q9P253) | 500 Max ([4]; uniprot Q9P253) | 500 ave ([4]; uniprot Q9P253)
1 | COc1ccc2c(c1)CCCN2C(=O)CCl [KB02] | YES | YES | YES | YES | – | – | – | – | – | – | – | – | – | – | – | – | – | – | – | –
2 | O=C(CCl)Nc1cc(C(F)(F)F)cc(C(F)(F)F)c1 [KBO3] | – | – | – | – | 12.97 | 2.25 | 41.66 | 41.635 | 19.85 | 3.78 | 46.645 | 49.26 | 1.03 | −4.767 | 30.61 | 30.61 | 19.6 | 16.2 | 47.0 | 47.0
